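Five compound concentrations were applied to cells in 96-well plates for 48 hours; endpoints were derived by simple linear interpolation of the resulting dose-response curve. GI50 is the concentration that inhibits growth by half.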 Activity calls are given as the source filed them. Cut-off read from the data, not from the text of the source: active = GI50 up to about 1.1 µM and inactive = higher.
Key:
Test in all cases: NCI tumour cell line growth inhibition, 48 h
HCT-116 = test system: HCT-116
HCT-15 = test system: HCT-15
OVCAR-4 = test system: OVCAR-4
NCI-H460 = test system: NCI-H460
NCI-H23 = test system: NCI-H23
A498 = test system: A498
HOP-62 = test system: HOP-62
OVCAR-3 = test system: OVCAR-3
UO-31 = test system: UO-31
SF-539 = test system: SF-539
SN12C = test system: SN12C
IGROV-1 = test system: IGROV-1
OVCAR-8 = test system: OVCAR-8
SNB-75 = test system: SNB-75
M14 = test system: M14
U-251 = test system: U-251
SNB-19 = test system: SNB-19
OVCAR-5 = test system: OVCAR-5
NCI-H522 = test system: NCI-H522

| SMILES | GI50 (HCT-116) | GI50 (HCT-15) | GI50 (OVCAR-4) | GI50 (NCI-H460) | GI50 (NCI-H23) | GI50 (A498) | GI50 (HOP-62) | GI50 (OVCAR-3) | GI50 (UO-31) | GI50 (SF-539) | GI50 (SN12C) | GI50 (IGROV-1) | GI50 (OVCAR-8) | GI50 (SNB-75) | GI50 (M14) | GI50 (U-251) | GI50 (SNB-19) | GI50 (OVCAR-5) | GI50 (NCI-H522) |
| --- | --- | --- | --- | --- | --- | --- | --- | --- | --- | --- | --- | --- | --- | --- | --- | --- | --- | --- | --- |
| Cc1cccc(C(C)C)c1NC(=O)C(=O)CC(=O)c1c(C)[n+]([O-])c2ccccc2[n+]1[O-] | 32.1 µM (inactive) | 20.9 µM | 25.4 µM (inactive) | 21.5 µM (inactive) | 18.8 µM (inactive) | > 100 µM (inactive) | > 100 µM (inactive) | 3.44 µM (inactive) | > 100 µM (inactive) | 36.9 µM (inactive) | 30.6 µM (inactive) | 30.2 µM (inactive) | 31.9 µM (inactive) | 28.5 µM (inactive) | 27.8 µM (inactive) | 34.1 µM (inactive) | 31.8 µM (inactive) | 45.9 µM (inactive) | 21.9 µM (inactive) |
| COc1cc(/C=C2\NC(=O)C(Cc3cc(OC)c(OC)c(C)c3OC)N(C(C)=O)C2=O)c(OC)c(C)c1OC (configuration not stated) | > 100 µM (inactive) |  | > 100 µM (inactive) | 43.4 µM (inactive) | > 100 µM (inactive) | > 100 µM (inactive) | > 100 µM (inactive) | > 100 µM (inactive) | 85.1 µM (inactive) | > 100 µM (inactive) | > 100 µM (inactive) | > 100 µM (inactive) | 72.8 µM (inactive) | > 100 µM (inactive) | > 100 µM (inactive) | > 100 µM (inactive) | > 100 µM (inactive) | > 100 µM (inactive) | 21.8 µM (inactive) |
| COC(=O)C1CC(C(=O)OC)c2nc3cc([N+](=O)[O-])ccc3nc21 (configuration not stated) | 33.7 µM (inactive) | 17.8 µM | > 100 µM (inactive) | 65.6 µM (inactive) | > 61.5 µM (inactive) | > 100 µM (inactive) | > 52.8 µM (inactive) | 33.1 µM (inactive) | 33.7 µM (inactive) | 41 µM (inactive) | > 79.3 µM (inactive) | 80.7 µM (inactive) | > 90.4 µM (inactive) | > 61 µM (inactive) | 39 µM (inactive) | 98.2 µM (inactive) | > 67.9 µM (inactive) | > 100 µM (inactive) | 7.93 µM (inactive) |
| BrC1=CC=C2NC=CC3=CC=NC1C32 (configuration not stated) | 6.03 µM (inactive) | 18.9 µM | 27.7 µM (inactive) | 2.75 µM (inactive) | 7.71 µM (inactive) | 30.3 µM (inactive) | 25.5 µM (inactive) | 22 µM (inactive) | 14.5 µM (inactive) | 12.6 µM (inactive) | 18.6 µM (inactive) | 25.6 µM (inactive) | 16.4 µM (inactive) | 18.3 µM (inactive) | 18 µM (inactive) | 7.67 µM (inactive) | 8.51 µM (inactive) | 19.1 µM (inactive) | 11.5 µM (inactive) |
| CC#C[P+](c1ccccc1)(c1ccccc1)c1ccccc1 | 2.56 µM (inactive) | 2.66 µM | 6.49 µM (inactive) | 2.48 µM (inactive) | 2.06 µM (inactive) | 39.4 µM (inactive) | 2.83 µM (inactive) | 3.09 µM (inactive) | 7.41 µM (inactive) | 2.25 µM (inactive) | 1.12 µM (inactive) | 6.95 µM (inactive) | 0.962 µM (active) | 2.43 µM (inactive) | 1.88 µM (inactive) | 0.861 µM (active) | 3.3 µM (inactive) | 8.55 µM (inactive) | 0.284 µM (active) |
| CCO/C=C1\N=C(C(Cl)c2ccccc2)OC1=O (configuration not stated) |  | > 100 µM | > 100 µM (inactive) | > 100 µM (inactive) | > 100 µM (inactive) | > 100 µM (inactive) | > 100 µM (inactive) | > 100 µM (inactive) | > 100 µM (inactive) | > 100 µM (inactive) | > 100 µM (inactive) | > 100 µM (inactive) | > 100 µM (inactive) | > 100 µM (inactive) | > 100 µM (inactive) |  | > 100 µM (inactive) | > 100 µM (inactive) | > 100 µM (inactive) |
| COC(OC)c1cccc2c1C1(O)CCC3(CC21)OCCCCO3 (configuration not stated) | > 100 µM (inactive) | > 100 µM | > 100 µM (inactive) | > 100 µM (inactive) | > 100 µM (inactive) | > 100 µM (inactive) | > 100 µM (inactive) | > 100 µM (inactive) | > 100 µM (inactive) | > 100 µM (inactive) | > 100 µM (inactive) | > 100 µM (inactive) | > 100 µM (inactive) | > 100 µM (inactive) | > 100 µM (inactive) | > 100 µM (inactive) | > 100 µM (inactive) | > 100 µM (inactive) | > 100 µM (inactive) |
| CC(=O)Oc1cc2c(=O)oc3c(OC(C)=O)c(OC(C)=O)c(OC(C)=O)c4c(=O)oc(c1OC(C)=O)c2c34 | 24 µM (inactive) | > 100 µM | 41.9 µM (inactive) | 34.7 µM (inactive) | > 100 µM (inactive) | 65 µM (inactive) | > 100 µM (inactive) | > 100 µM (inactive) | 97.7 µM (inactive) | 24.8 µM (inactive) | 29 µM (inactive) | > 100 µM (inactive) | 56.6 µM (inactive) | 45.9 µM (inactive) | 36.6 µM (inactive) | 36.6 µM (inactive) | 73.8 µM (inactive) | 94.6 µM (inactive) | 37.4 µM (inactive) |
| CC1=NN(C(=O)CC(=O)Nc2ccccc2)C(=O)C1/N=N/c1ccc(S(N)(=O)=O)cc1 (configuration not stated) | 48 µM (inactive) | > 100 µM | 60.4 µM (inactive) | 92.5 µM (inactive) | 78 µM (inactive) | > 100 µM (inactive) | 88.5 µM (inactive) | 66.2 µM (inactive) | 57.8 µM (inactive) | 99.8 µM (inactive) | 41.9 µM (inactive) | 34.7 µM (inactive) | 61.5 µM (inactive) | 60.8 µM (inactive) | 80.2 µM (inactive) | 56.4 µM (inactive) | 71.6 µM (inactive) | > 100 µM (inactive) | 39 µM (inactive) |
| Cc1ccc(S(=O)(=O)c2c3nc4ccccc4nc3n3c2[nH]c2ccccc23)cc1 | > 100 µM (inactive) | > 100 µM | > 100 µM (inactive) | > 100 µM (inactive) | > 100 µM (inactive) | 18.7 µM (inactive) | > 100 µM (inactive) | > 100 µM (inactive) | > 100 µM (inactive) | > 100 µM (inactive) | > 100 µM (inactive) | 8.13 µM (inactive) | > 100 µM (inactive) | > 100 µM (inactive) | > 100 µM (inactive) | > 100 µM (inactive) | > 100 µM (inactive) | > 100 µM (inactive) | > 100 µM (inactive) |
| CC1(C)O[C@@H](CCl)C[C@@H](C#N)O1 | > 100 µM (inactive) |  | > 100 µM (inactive) | > 100 µM (inactive) | > 100 µM (inactive) | > 100 µM (inactive) | > 100 µM (inactive) | > 100 µM (inactive) | > 100 µM (inactive) | > 100 µM (inactive) |  | > 100 µM (inactive) | > 100 µM (inactive) | > 100 µM (inactive) | > 100 µM (inactive) | > 100 µM (inactive) | > 100 µM (inactive) | > 100 µM (inactive) | > 100 µM (inactive) |
| CC(C)NC1CCCCC2c3cc(F)ccc3[C@]12O (some centres not stated) | > 100 µM (inactive) | > 100 µM | > 100 µM (inactive) | > 100 µM (inactive) | > 100 µM (inactive) | > 100 µM (inactive) | > 100 µM (inactive) | > 100 µM (inactive) | > 100 µM (inactive) | > 100 µM (inactive) | > 100 µM (inactive) | > 100 µM (inactive) | > 100 µM (inactive) | > 100 µM (inactive) | > 100 µM (inactive) | > 100 µM (inactive) | > 100 µM (inactive) | > 100 µM (inactive) | > 100 µM (inactive) |
| C[C@@H](c1ccccc1)N(CC#N)C1CCC[C@H]1O (some centres not stated) | > 100 µM (inactive) | > 100 µM | > 100 µM (inactive) | > 100 µM (inactive) | > 100 µM (inactive) | > 100 µM (inactive) | > 100 µM (inactive) | > 100 µM (inactive) | > 100 µM (inactive) | > 100 µM (inactive) | > 100 µM (inactive) | > 100 µM (inactive) | > 100 µM (inactive) | > 100 µM (inactive) | > 100 µM (inactive) | > 100 µM (inactive) | > 100 µM (inactive) |  | > 100 µM (inactive) |
| Cn1cnc([N+](=O)[O-])c1SC1=NCCS1 | 50 µM (inactive) |  | 89.9 µM (inactive) | > 100 µM (inactive) | 81.1 µM (inactive) | > 100 µM (inactive) | > 100 µM (inactive) | > 100 µM (inactive) | 74.6 µM (inactive) | > 100 µM (inactive) | > 100 µM (inactive) | > 100 µM (inactive) | > 100 µM (inactive) | > 100 µM (inactive) | 48 µM (inactive) | > 100 µM (inactive) | > 100 µM (inactive) | > 100 µM (inactive) | 16.7 µM (inactive) |
| CC#C[I+]c1ccccc1 | 19 µM (inactive) |  | 17.3 µM (inactive) | 35.5 µM (inactive) | 18.1 µM (inactive) | 60.5 µM (inactive) | 35.3 µM (inactive) | 17.5 µM (inactive) | 30.3 µM (inactive) | 18.2 µM (inactive) | 12.3 µM (inactive) | 37.4 µM (inactive) | 15.1 µM (inactive) | 50 µM (inactive) | 17.3 µM (inactive) | 15 µM (inactive) | 64.6 µM (inactive) | 32.7 µM (inactive) | 3.05 µM (inactive) |
